Measurements taken from patent US6748900B2, “Methods for growing and imprinting fish using an odorant” (MariCal, Inc., priority 2001, dated 2004).
“Also recorded” adds a separate entry of the source.

Tests used:
olfactory epithelium = assay: Olfactory nerve recording: PVCR agonists added to a repellant (finger rinse) or an attractant (L-alanine); format: in vivo, Atlantic salmon (Salmo salar); conditions: for effect on response of olfactory epithelium to mammalian finger rinse: FIG. 13
Description: (§1) Physiol. A 127:157-166 (1975), and Hubbard, PC, et al., Olfactory sensitivity to changes in environmental Ca2+ in the marine teleost Sparus Aurata, J. Exp. Biol. 203:3821-3829 (2000). After anaesthetizing the fish, it was placed in V-clamp apparatus where its gills were irrigated continuously with aerated seawater and its nasal lamellae bathed continuously by a stream of distilled water via a tube held in position in the inhalant olfactory opening. The olfactory nerves of the fish were exposed by removal of overlying bony structures. Stimuli were delivered as boluses to the olfactory epithelium via a 3 way valve where 1 cc of water containing the stimulus was rapidly injected into the tube containing a continuously stream of distilled water. […] Using this experimental approach, stable and reproducible recordings could be obtained for up to 6 hr after the initial surgery on the fish.
The ablation of responses to both the PVCR agonists as shown in FIG. 12A as well as mammalian finger rinse indicate that there are some complex interactions between PVCR proteins and other odorant receptors. It is also extremely unlikely that inclusion of PVCR agonists removed all the stimulatory components of mammalian finger rinse from solution such that they were not able to stimulate the epithelium.

[1] = test system: nasal lamellae of Atlantic salmon; assay: Olfactory response to stimuli alone or in combination with 500 mM NaCl (FIGS. 12B-12D); format: in vivo, Atlantic salmon (Salmo salar)
Experimental: Stimuli were delivered to the olfactory epithelium via a glass capillary tube placed in the inhalant olfactory opening. This tube was connected to a gravity fed tubing system allowing for switching from a background perfusion (charcoal filtered freshwater) to an experimental stimulus while maintaining a flow rate of 6-8 ml/min. Verification of the location of the stimulus delivery tubes and electrode was made by observing responses to a ‘search stimulus’ of […].
Stimuli consisted of CaR agonists (CaCl2, MgCl2, GdCl3, SrCl2 and NaCl (Sigma-Aldrich), control freshwater stimulus (charcoal filtered tap water) and control seawater stimuli (ASW, Ca-free ASW, Divalent free ASW). Stimuli were presented alone or in combination with 500 mM NaCl. Ringers and artificial seawater recipes were obtained from the Biological Bulletin Compendia (all concentrations are in mM) ASW (nAcl 423, KCl 9.0, CaCl2 22.94, MgSO4 25.50, NaHCO3 2.14, pH 8.0); Ca-free ASW (NaCl 436.71, KCl 9.0, MgCl2 22.94, MgSO4, 25.5, NaHCO3 2.14, pH 8.0); Divalent free ASW (NaCl 461.85, KCl 10.73, NAHCO3 2.14, Na2SO4 7.04, pH 8.0); FW Teleost Ringer's (NaCl 111.0, KCl 5.37, Cacl2 1.0, MgSO4, 0.6, HEPES 5.0, pH 7.3).

[2] = test system: olfactory epithelium of freshwater adapted juvenile salmon; assay: Extracellular electrical potentials (EEG) from olfactory nerve after bolus stimuli to the olfactory epithelium in distilled water; format: in vivo, Atlantic salmon (Salmo salar); conditions: for concentration dependence of olfactory nerve impulse: exposure of fish olfactory epithelium
Description: The present invention provides methods for identifying and/or quantifying the effects of PVCR modulators on olfactory receptor sensing and visa versa. The present invention also includes methods for determining whether a compound is an odorant. When fish are exposed to an odorant (e.g., the odorant binds to olfactory lamellae), the odorant binds to the olfactory epithelium of the fish, which leads to the generation of a nerve impulse. The electric potential of the impulse can be measured using methods known in the art, or those later developed. One example of a method that can be used to measure electric potential is an electroencephalogram, commonly referred to as an EEG. Example 3 describes in detail how to measure nerve impulse of fish, and in particular, as it relates to modulation of the PVCR in the olfactory apparatus of the fish. Briefly, the fish are anaesthetized and placed in V-clamp apparatus where its gills were irrigated continuously with aerated seawater and its nasal lamellae bathed continuously by a stream of distilled water via a tube held in position in the inhalant olfactory opening. The olfactory nerves of the fish were exposed by removal of overlying bony structures. Odorants to be tested can be delivered as boluses to the olfactory epithelium via a 3 way valve where 1 cc of water containing the stimulus was rapidly injected into the tube containing a continuously stream of distilled water. […] The results can be analyzed by computer using compatible software.
as §1
Similarly, exposure of olfactory epithelium to the PVCR agonist Gd^3+ produces responses of a similar magnitude to those evoked by Ca^2+ in a concentration range of 1-10 micromolar. […] These dose response curves (EC50 Gd^+3≦Ca^2+<Mg^2+) are similar to those obtained for PVCR modulated responses in other fish epithelium (flounder urinary bladder NaCl-mediated water transport-see SKCaR application).

[3] = test system: shark kidney calcium receptor (SKCaR); assay: FURA-2 ratio imaging fluorescence of HEK cells stably expressing SKCaR; format: cell-based, dogfish (Squalus acanthias); conditions: 10 mM amino acid; for effect on SKCaR's response to a given Ca^2+ concentration: FIG. 16
Experimental: Full length recombinant dogfish (Squalus acanthias) shark kidney calcium receptor (SKCaR) was expressed in human embryonic kidney cells using methods described herein. The ability of SKCaR to respond to individual amino acids as well as various mixtures was quantified using FURA-2 ratio imaging fluorescence.
Baseline extracellular Ca^2+ concentration was 0.5 mM. Aliquots of Ca^2+ were added to produce final extracellular concentrations of 2.5 mM, 5 mM, 7.5 mM, 10 mM and 20 mM Ca^2+ with changes in the fluorescence recorded. Note that increases in cell fluorescence were greater in the presence of 10 mM Phe for extracellular Ca^2+ concentrations less than 10 mM.

[4] = 1 mM agonist with 500 mM NaCl, FIG. 12D
[5] = 500 micromolar stimulus, FIG. 11

[Ca+2] [Ca^2+, calcium]
effect on olfactory nerve response to 500 micromolar L-alanine (olfactory epithelium; 5 mM added, FIG. 14 recording #2): complete loss of the corresponding response
effect on response of olfactory epithelium to mammalian finger rinse (olfactory epithelium; 5 mM agonist included): reversibly ablated the response
response to subsequent identical L-alanine stimulus without the agonist (olfactory epithelium; after 5 mM, FIG. 14 recording #3): return of the signal
effect on olfactory response to 500 mM NaCl [1, 4]: significantly reduce the olfactory response
olfactory response in a 500 mM NaCl solution ([1]; 10 mM in 500 mM NaCl, FIG. 12C): identical to that produced by artificial seawater (ASW) exposure
effect on olfactory response produced by 500 mM NaCl ([1]; FIG. 12C, various concentrations in 500 mM NaCl): reduces the olfactory response
olfactory nerve response (EEG activity) ([2]; 1 mM stimulus, FIG. 11): responses in EEG activity
olfactory nerve response (EEG activity) ([2]; 1 mM stimulus, FIG. 11, listed as calcium): existence of an olfactory recording
EC50 ([2]; FIG. 12A, responses normalized to 10 mM Ca^2+, multiple fish, read-out: half maximal excitatory response (EC50)): 1 to 10 µM
concentration dependence of olfactory nerve impulse [2]: concentration-dependent olfactory nerve impulse

[Gd+3] [Gd^3+, gadolinium]
effect on olfactory nerve response to 500 micromolar L-alanine (olfactory epithelium; 50 micromolar added, FIG. 14 recording #7): complete loss of the corresponding response
effect on response of olfactory epithelium to mammalian finger rinse (olfactory epithelium; 50 micromolar agonist included): reversibly ablated the response
effect on response of olfactory epithelium to mammalian finger rinse (olfactory epithelium; 50 micromolar agonist included, listed as gadolinium): reversibly altered
response to subsequent identical L-alanine stimulus without the agonist (olfactory epithelium; after 50 micromolar, FIG. 14 recording #8 vs #6): return of the signal; also recorded: decreased as compared to control
effect on olfactory response to 500 mM NaCl ([1]; 50 micromolar agonist with 500 mM NaCl, FIG. 12D): significantly reduce the olfactory response
olfactory nerve response ([2]; 50 micromolar stimulus, FIG. 11, listed as Gadolinium): existence of an olfactory recording
olfactory nerve response ([2]; 50 micromolar stimulus, FIG. 11, listed as gadolinium): obtained a response
concentration range producing responses of a similar magnitude to those evoked by Ca^2+ ([2]; FIG. 12A): 1 to 10 µM
concentration dependence of olfactory nerve impulse [2]: concentration-dependent olfactory nerve impulse

CC[C@H](C)[C@H](N)C(=O)O [Ile, L-Isoleucine]
effect on SKCaR's response to a given Ca^2+ concentration [3]: increase SKCaR's response

C[C@H](N)C(=O)O [L-alanine]
duration of olfactory nerve response [2, 5]: approximately 2 seconds
olfactory nerve response [2, 5]: large increases in both the firing frequency and amplitude; also recorded: existence of an olfactory recording

[Mg+2] [Mg^2+, magnesium]
effect on olfactory response to 500 mM NaCl [1, 4]: significantly reduce the olfactory response
concentration at which olfactory epithelium responses first occur ([2]; FIG. 12A): 10 to 100 µM
concentration dependence of olfactory nerve impulse [2]: concentration-dependent olfactory nerve impulse

[Cl-].[Na+] [NaCl, sodium chloride]
response to subsequent L-Alanine alone (olfactory epithelium; after 250 mM, FIG. 14 recordings #5 and #10): enhanced response to L-Alanine alone
olfactory response to irrigation of the nasal lamellae ([1]; 500 mM alone, FIG. 12D): large response
olfactory nerve response (EEG activity) ([2]; 250 mM stimulus, FIG. 11): responses in EEG activity; also recorded: existence of an olfactory recording
concentration until which olfactory epithelium is unresponsive ([2]; FIG. 12A): 250 millimolar

N[C@@H](Cc1ccccc1)C(=O)O [Phe, L-Phenylalanine]
effect on SKCaR's response to a given Ca^2+ concentration [3]: increase SKCaR's response
increases in cell fluorescence on addition of extracellular Ca^2+ ([3]; extracellular Ca^2+ less than 10 mM, FIG. 15): greater

[Sr+2] [Sr2+, strontium]
effect on olfactory response to 500 mM NaCl [1, 4]: significantly reduce the olfactory response

neomycin
concentration dependence of olfactory nerve impulse [2]: concentration-dependent olfactory nerve impulse
